Series [1] is described as follows: NINCDS Maximal Electroshock Seizure Test (MES). It is filed as in vivo, mice. The conditions noted are these: for minimal effective dose: read-out: MES: dosage level that elicited protection. On the procedure:
(§1) 1. Neurological Activity Tests. […] Compounds were evaluated for anticonvulsant activity in two seizure models, the maximal electroshock seizure (MES) test and the subcutaneous pentylenetetrazol (Metrazol) seizure threshold (scMet) test.
The Maximal Electroshock Seizure Test was performed according to the method described by Swinyard and coworkers,* wherein a drop of 0.9% saline is instilled in each eye prior to application of corneal electrodes. Seizures are elicited with a 50 Hz alternating current of 50 mA (5 to 7 times that necessary to elicit minimal electroshock seizures) delivered for 0.2 sec via corneal electrodes. This stimulus will produce a maximal seizure in all normal mice. The maximal seizure typically consists of a short period of initial tonic flexion and a prolonged period of hind limb tonic extension, followed by terminal clonus. The seizure lasts about 22 seconds. Abolition of the hind limb tonic extensor component of the seizure is defined as protection and indicates anticonvulsant activity in the test compound.
(§2) The ability of a compound to prevent maximal electroshock seizures is believed to correlate with its ability to prevent the spread of seizure discharge through neural tissue. Activity against maximal electroshock seizures is thought to indicate potential efficacy in the treatment of major motor (grand mal) seizures. […] Selective action in the test is believed to indicate potential efficacy against absence (petit mal) seizures.
(§3) As described earlier, the MES, scMet and Rotorod tests were performed one-half hour and four hours after administration of each compound.
(§4) In the Secondary Evaluation, median effective doses (ED50) are determined in the MES, scMet and Rotorod assays using the procedures defined in Pharmacology, 95, 99-113 (1949).
(§5) Separate groups of animals are used for each time period. The times of peak toxic and anticonvulsant effect are taken from the resulting graph of percent of animals responding vs. time, and the determinations of median effective doses are performed at those times.
A general note: In the maximal electroshock model the usual endpoint is tonic extension of the hind limbs.

Series [2] can be described thus: Neuropharmacological Profile (NPP): general CNS observational screen (depression, righting reflex, ataxia). The conditions noted are these: i.p., mice, score 0-8. On the procedure: Representative compounds according to the present invention were tested for central nervous system activity by Pharmakon Laboratories of Scranton, Pennsylvania. The battery of general observational procedures used is referred to herein as a Neuropharmacological Profile (NPP). Additionally, representative compounds were tested in the Anticonvulsant Screening Project of the National Institutes of Neurological and Communicative Disorders and Stroke (NINCDS) at the University of Utah under the direction of Dr. Ewart A. Swinyard.
(§6) The procedures for the determination of a neuropharmacological profile involved white male mice of the Carworth Farm Strain CF-1 weighing 18 to 22 grams. […] Intraperitoneal injections were administered in logarithmic progression and sequentially. The dose levels employed routinely were 10, 30, 100 and 300 mg/kg, using four male mice at each dose level. Since this test was conducted in a sequential manner, the first does administered was at 300 mg/kg. […] Approximately thirty-eight signs and symptoms of pharmacological activity can be identified.
(§7) The animals were observed continously for one hour and, if no signs of pharmacological or toxicological activity were present at the end of the first hour, they were intermittently checked for activity every fifteen minutes thereafter for two consecutive hours. […] The observation period began immediately following the injection and the animals were then continuously observed for three hours and intermittently checked thereafter for forty-eight hours. The animals were observed and signs and symptoms of pharmacological activity were recorded continuously until no further symptoms developed and until the symptoms that appeared were no longer present. […] In such instances, the animals were observed beyond this period until they returned to normal. Routinely, the number of animals alive at the end of the forty-eight hour observation period was recorded and the LD50 estimated.
The animals are free to move about for evaluation of spatial orientation, alertness and spontaneous motor activity.
(§8) Since this is a general CNS screening procedure, only peak effects were recorded. Certain measures of behavior and neurological deficit were scored in terms of intensity of effect, while most others were determined on an all or none basis. Thus, in scoring measures which were normally present, e.g., spontaneous activity and skin color, an increase in score from 4 to 8 was used to denote stimulation or enhancement of skin color, whereas a decrease in score from 4 to 0 indicated depression or cyanosis. For scoring measures normally absent, e.g., depression, righting reflex and ataxia, activity was reflected as an increase in score from 0 to 8. The 0 to 8 scale was rounded off so that the actual ratings are only 0, 2, 4, 6 and 8. The compounds were also evaluated for anticonvulsant activity by using the maximal electroshock seizure (MES) test. In the MES study, four mice were dosed intraperitoneally at 100 mg/kg and challenged thirty minutes later with 50 mA, 0.2 second duration of electroshock. A protection ratio (number of mice protected from tonic extension .div. number of mice tested) was then established.
At the termination of the test, the results were recorded and tabulated.
(§9) Scores for behavioral symptoms, including depression, righting reflex and ataxia, are the actual numbers reported. Protection against MES is reported as a percentage. Since four animals were involved in this test, the findings are 0% for none protected, 25% for one out of four, etc. […] In order to maintain reasonable uniformity in the reporting of results, each entry corresponds to a dosage level of 100 mg/kg. Any variations from that dosage are indicated.

A short description of series [3]: NPP lethality (estimated LD50). The settings on record: mouse, in vivo, ip. The protocol: as §6, §7, §9
The nature of series [4]: NINCDS rotorod ataxia test (minimal neurotoxicity). It is filed as in vivo, mice. The protocol:
(§10) 1. Neurological Activity Tests. The biological testing program is designed to evaluate the following four aspects of drug action: (1) the existence and specificity of anticonvulsant activity; (2) the toxicity, particularly to the central nervous system; and, if the results of (1) and (2) are favorable, (3) the potency and protective index, a comparison between toxic and effective dose and (4) the time course of activity. Compounds were evaluated for anticonvulsant activity in two seizure models, the maximal electroshock seizure (MES) test and the subcutaneous pentylenetetrazol (Metrazol) seizure threshold (scMet) test.
Central nervous system toxicity was evaluated in the rotorod ataxia test. This test is designed to detect minimal neurotoxicity. The animal is placed on a 1-inch diameter knurled plastic rod rotating at 6 rpm. Normal mice can remain indefinitely on a rod rotating at this speed. Neurological deficit is defined as the failure of the animal to remain on the rod for at least 1 minute. This test has a clear end-point, is quantifiable and correlates well with the clinical assessment of minimal toxicity.
(§11) Specific anticonvulsant evaluations performed by NINCDS using MES, scMet and Rotorod assays are presented in Tables III & IV for fourteen new compounds as well as several known compounds. Table III centers attention on 2-substituted-3-o-tolyl-4-(3H)-quinazolinones while Table IV includes the findings for various other 2,3-disubstituted-4(3H)-quinazolinones. As described earlier, the MES, scMet and Rotorod tests were performed one-half hour and four hours after administration of each compound. The tables identify the dosage level that elicited a positive result, such as protection against MES and scMet induced seizures, or loss of balance on the rotorod.
In the Secondary Evaluation, median effective doses (ED50) are determined in the MES, scMet and Rotorod assays using the procedures defined in Pharmacology, 95, 99-113 (1949). In addition, each compound's anticonvulsant activity and neurotoxicity over time are determined by measuring the effect of an intraperitoneally administered estimated median effective dose on maximal electroshock seizures and rotorod performance at intervals of 1/2, 1, 2, 3, 4, 6 and 8 hours.
as §5
On the technique in general: In the rotarod test animals must keep their balance on a rotating rod.

The nature of series [5]: NINCDS Subcutaneous Pentylenetetrazol (Metrazol) Seizure Threshold Test (scMet). In kind it is in vivo, mice. The settings on record: for minimal effective dose: sc, read-out: scMet: dosage level that elicited protection. The protocol: as §1
Subcutaneous Pentylenetetrazol (Metrazol) Seizure Threshold Test (scMet) produces threshold (clonic) seizures. Pentylenetetrazol is administered subcutaneously as a threshold 0.5% solution (in 0.9% sodium chloride) in a loose fold of skin on the back of the neck in a dose of 85 mg/kg. […] Metrazol is given 10 minutes before the beginning of the test to allow for the delay in onset of Metrazol action. The animal is observed for 30 minutes. Failure to observe even a threshold seizure (a single episode of clonic spasms at least 5 seconds in duration) is defined as protection and indicates anticonvulsant activity in the test compound. These two methods of seizure provocation reliably elicit well-characterizied seizure phenomena.
as §2, §3, §4, §5

Series [6] in a line: NPP maximal electroshock seizure (MES) protection. It is filed as in vivo, white male mice of the Carworth Farm Strain CF-1. The conditions noted are these: Mus musculus, ip, 0.5 h; at 100 mg/kg i.p., four mice, 30 min after dosing. The protocol: as §6, §8, §9
Series [7] can be described thus: NINCDS primary evaluation, overall classification. It is filed as in vivo, mice. Further details: key to NINCDS Classification: III: did not exhibit activity in any of the 3 categories at dose levels of 300 mg/kg. The settings on record: primary evaluation. On the procedure:
as §10, §11

For series [8] the following is noted: literature; cited from earlier work.
The mark [9] stands for this setting: Mus musculus, ip, secondary evaluation, at time of peak effect.
Where [10] appears, read: Mus musculus, after 4 hr (value in parentheses).
Setting [11] is: Mus musculus, ip, after 4 hr (value in parentheses).
Setting [12] is: after 4 hr (value in parentheses).

As to `Cc1ccccc1-n1c(CC(=O)c2ccncc2)nc2ccccc2c1=O` [IIId, 2-[2-Oxo-2-(4-pyridyl)ethyl]-3-o-tolyl-4(3H)-quinazolinone], the minimal effective dose in series [1] (Mus musculus, ip, after 0.5 hr) came to 100 mg/kg. Also, it took a dose of 74 mg/kg to reach the 50% effect level in series [1] (setting [9]) (ED50). In series [1] (secondary evaluation), the “MES protective index compared with methaqualone” value is given as “approximately five-fold higher”, the “PI MES (Protective Index = TD50/ED50)” value turned out to be 5.94 and the “potency against electroshock-induced (MES) seizures compared with methaqualone” value is recorded as “less potent than methaqualone”. The “CNS Depression” value in series [2] (at 100 mg/kg) was found to be 0. Besides, in series [2] (at 300 mg/kg), the Depression is given as 4. In series [3], the LD50 (as a rule, the dose expected to kill half of the subjects tested) at 48 h was greater than 562 mg/kg. Moreover, the TD50 (as a rule, the 50% point of the dose-response relation for the toxic effect studied) in series [4] (mouse, in vivo, ip, secondary evaluation, at time of peak effect) was 440 mg/kg. For the same compound, in series [5] (setting [9]), the ED50 – broadly, the midpoint of the dose-response relation – stood at 75 mg/kg. In series [5] (Mus musculus, after 0.5 hr), the minimal effective dose was 30 mg/kg. In addition, the minimal effective dose in series [5] (setting [10]) was 300 mg/kg. In addition, in series [5] (secondary evaluation), the “PI scMet (Protective Index = TD50/ED50)” value was found to be 5.86, the “potency against scMet seizures compared with methaqualone” value is listed as “less potent than methaqualone” and the “scMet protective index compared with methaqualone” value is listed as “approximately five-fold higher”. This compound came in with a responders at 100 mg/kg in series [6] of 0%.

Take `Cc1ccccc1-n1c(C)nc2cc(N)ccc2c1=O` [H and 7-amino, reference compound]: the minimal effective dose in series [1] (Mus musculus, ip, after 0.5 hr) was determined as 100 mg/kg; in series [1] (setting [11]), 100 mg/kg; in series [5] (Mus musculus, after 0.5 hr) it was 100 mg/kg; in series [5] (setting [10]), 100 mg/kg. The “toxicity remark (footnote a to NINCDS classification)” value in series [7] is given as “Extremely toxic”. The results for the “Rotorod: dosage level that elicited loss of balance” value in series [4] (after 0.5 hr) and in series [4] (setting [12]) were 100 mg/kg and 300 mg/kg, respectively.

In the case of `CCN(CC)c1ccc(-n2c(C)nc3ccccc3c2=O)cc1` [2-methyl-3-(p-diethylaminophenyl)-4(3H)-quinazolinone], the “sedative-hypnotic / hypnotic / depressant activity (in words)” value in series [8] is “equal hypnotic activity to methaqualone”.

On to `O=C(Cc1nc2ccccc2c(=O)n1-c1ccccc1Cl)c1cccnc1` [IVc, 2-[2-Oxo-2-(3-pyridyl)ethyl]-3-o-chlorophenyl-4(3H)-quinazolinone], for which the “CNS Depression” value in series [2] (at 100 mg/kg) is on record as 4. In series [3], the LD50 at 48 h was 562 mg/kg. In addition, in series [4] (setting [12]), the “Rotorod: dosage level that elicited loss of balance” value worked out at 300 mg/kg. The minimal effective dose was determined as 300 mg/kg in series [5] (Mus musculus, after 0.5 hr) and 300 mg/kg in series [5] (setting [10]). This compound had a responders at 100 mg/kg in series [6] of 25%.

Take `Cc1ccccc1N1C(=O)c2ccccc2NC1C` (stereo not drawn) [1,2-dihydro derivative]: the “sedative-hypnotic / hypnotic / depressant activity (in words)” value in series [8] is recorded as “abolishes depressant activity”.

For `Cc1ccccc1-n1c(CC(=O)c2ccc[n+](C)c2)nc2ccccc2c1=O` [CO-3-C5 H4 N^+ CH3 I^-], the minimal effective dose was determined as 100 mg/kg in series [1] (setting [11]) and 30 mg/kg in series [5] (setting [10]). Also, in series [7], the “toxicity remark (footnote a to NINCDS classification)” value is recorded as “Extremely toxic”. In addition, the “Rotorod: dosage level that elicited loss of balance” value in series [4] (after 0.5 hr) was 100 mg/kg.

As to `O=C(Cc1nc2ccccc2c(=O)n1-c1ccccc1Cl)C(F)(F)F` [IVa, 2-(3,3,3-Trifluoroacetonyl)-3-o-chlorophenyl-4(3H)-quinazolinone], in series [7], the “NINCDS Classification” value is “III”. Besides, the figures for the “CNS Depression” value in series [2] (at 30 mg/kg (value in parentheses)) and in series [2] (at 100 mg/kg) were 6 and 8, respectively. The LD50 at 48 h in series [3] is 178 mg/kg. Moreover, the “Rotorod: dosage level that elicited loss of balance” value in series [4] (after 0.5 hr) and in series [4] (setting [12]) was 300 mg/kg throughout.

As to `Cc1ccccc1-n1c(C)nc2c(c1=O)CCCC2`, the “sedative-hypnotic / hypnotic / depressant activity (in words)” value in series [8] is recorded as “lack of hypnotic activity”.

(Values after patent US4183931A, “2-Ketoalkyl-4(3H)-quinazolinones” (Research Corporation, priority 1977, dated 1980).)
